# Target: T1, human FXR (NR1H4) (Homo sapiens, UniProt Q96RI1)
# T1 sequence (Q96RI1 1-486): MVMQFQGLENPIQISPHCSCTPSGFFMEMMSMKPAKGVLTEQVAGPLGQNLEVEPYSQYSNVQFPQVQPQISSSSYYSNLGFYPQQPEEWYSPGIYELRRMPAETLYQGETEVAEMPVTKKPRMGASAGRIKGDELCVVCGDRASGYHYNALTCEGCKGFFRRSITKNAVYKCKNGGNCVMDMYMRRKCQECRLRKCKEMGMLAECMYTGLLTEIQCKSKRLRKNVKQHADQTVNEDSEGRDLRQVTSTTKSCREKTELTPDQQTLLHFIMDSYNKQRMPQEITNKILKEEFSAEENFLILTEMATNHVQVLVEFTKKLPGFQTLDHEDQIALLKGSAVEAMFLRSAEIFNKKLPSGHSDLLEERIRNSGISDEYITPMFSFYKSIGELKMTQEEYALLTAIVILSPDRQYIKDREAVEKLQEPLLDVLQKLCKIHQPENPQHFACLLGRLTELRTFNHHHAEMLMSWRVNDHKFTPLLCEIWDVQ
# Test: Human FXR (NR1H4) Assay: Gal4 promoter driven luciferase reporter transactivation in CHO cells (Indigo Bioscience kit IB00601)
# Assay type: cell-based
# Details: for Emax: CHO, efficacy normalized to CDCA set as 100%, read-out: Efficacy (%); for EC50: potency range, Human FXR (NR1H4) reporter assay in CHO cells, read-out: EC50
# Outline: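 CHO reporter cells expressing human NR1H4 with luciferase driven by an FXR-responsive promoter (Gal4 system), run per manufacturer's kit. Compounds applied to plated cells, then incubated a further 22 hours at 37° C. Luciferase luminescence read after detection reagent as a surrogate of FXR activation, giving potency and efficacy.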
SMILES,Emax [%],EC50 [nM]
O=C(O)c1ccc2nc(NC(=O)N3C4CCC3CC(OCc3c(-c5c(Cl)cccc5Cl)noc3C3CC3)C4)ccc2c1 (centres unmarked) [Example 789],57,10 to 100
CC1(S(=O)(=O)NC(=O)c2ccc(NC(=O)N3C4CCC3CC(OCc3c(-c5c(Cl)cccc5Cl)noc3C3CC3)C4)cc2-c2cncnc2)CC1 (centres unmarked) [Example 790],49,10 to 100
CC1(S(=O)(=O)NC(=O)c2cnc3ccc(NC(=O)N4C5CCC4CC(OCc4c(-c6c(Cl)cccc6Cl)noc4C4CC4)C5)cc3c2)CC1 (centres unmarked) [Example 791],11,100 to 1000
COC(=O)c1cc(OC)c(NC(=O)N2C3CCC2CC(OCc2c(-c4c(Cl)cccc4Cl)noc2C2CC2)C3)cc1-c1ccccc1 (centres unmarked) [Example 792],92,< 10
COc1cc(C(=O)O)c(-c2ccccc2)cc1NC(=O)N1C2CCC1CC(OCc1c(-c3c(Cl)cccc3Cl)noc1C1CC1)C2 (centres unmarked) [Example 793],99,< 10
COC(=O)c1cc(F)c(NC(=O)N2C3CCC2CC(OCc2c(-c4c(Cl)cccc4Cl)noc2C2CC2)C3)cc1-c1ccccc1 (centres unmarked) [Example 794],80,< 10
COC(=O)c1ccc(NC(=O)N2C3CCC2CC(OCc2c(-c4c(Cl)cccc4Cl)noc2C2CC2)C3)c(F)c1-c1ccccc1 (centres unmarked) [Example 795],44,10 to 100
COC(=O)c1ccc(NC(=O)N2C3CCC2CC(OCc2c(-c4c(Cl)cccc4Cl)noc2C2CC2)C3)cc1-c1ccc(C(F)(F)F)nc1 (centres unmarked) [Example 796],95,< 10
O=C(O)c1cc(F)c(NC(=O)N2C3CCC2CC(OCc2c(-c4c(Cl)cccc4Cl)noc2C2CC2)C3)cc1-c1ccccc1 (centres unmarked) [Example 797],129,< 10
O=C(O)c1ccc(NC(=O)N2C3CCC2CC(OCc2c(-c4c(Cl)cccc4Cl)noc2C2CC2)C3)c(F)c1-c1ccccc1 (centres unmarked) [Example 798],124,10 to 100
O=C(O)c1ccc(NC(=O)N2C3CCC2CC(OCc2c(-c4c(Cl)cccc4Cl)noc2C2CC2)C3)cc1-c1ccc(C(F)(F)F)nc1 (centres unmarked) [Example 799],133,< 10
COC(=O)c1ccc(NC(=O)N2C3CCC2CC(OCc2c(-c4c(Cl)cccc4Cl)noc2C2CC2)C3)c(C2CC2)c1 (centres unmarked) [Example 800],54,10 to 100
O=C(O)c1ccc(NC(=O)N2C3CCC2CC(OCc2c(-c4c(Cl)cccc4Cl)noc2C2CC2)C3)c(C2CC2)c1 (centres unmarked) [Example 801],70,10 to 100
COC(=O)c1ccc(NC(=O)N2C3CCC2CC(OCc2c(-c4c(Cl)cccc4Cl)noc2C2CC2)C3)c(C#N)c1 (centres unmarked) [Example 802],28,100 to 1000
CCOC(=O)c1ccc2nc(NC(=O)N3C4CCC3CC(OCc3c(-c5c(Cl)cccc5Cl)noc3C3CC3)C4)sc2c1 (centres unmarked) [Example 804],90,10 to 100
O=C(O)c1ccc2nc(NC(=O)N3C4CCC3CC(OCc3c(-c5c(Cl)cccc5Cl)noc3C3CC3)C4)sc2c1 (centres unmarked) [Example 805],104,10 to 100
CC(C)(C)c1ccc(C(=O)NC(=O)N2C3CCC2CC(OCc2c(-c4c(Cl)cccc4Cl)noc2C2CC2)C3)cc1 (centres unmarked) [Example 806],5,10 to 100
O=C(O)c1ccc(NC(=O)N2C3CCC2CC(OCc2c(-c4ccccc4C(F)(F)F)noc2C2CC2)C3)c(F)c1 (centres unmarked) [Example 807],42,10 to 100
O=C(O)c1ccc(NC(=O)N2C3CCC2CC(OCc2c(-c4c(F)cccc4F)noc2C2CC2)C3)c(F)c1 (centres unmarked) [Example 808],32,10 to 100
O=C(O)c1ccc(NC(=O)N2C3CCC2CC(OCc2c(-c4ccccc4C4CC4)noc2C2CC2)C3)c(F)c1 (centres unmarked) [Example 809],43,10 to 100
CCOc1cc(C(=O)O)ccc1NC(=O)N1C2CCC1CC(OCc1c(-c3c(F)cccc3F)noc1C1CC1)C2 (centres unmarked) [Example 810],64,10 to 100
CCOc1cc(C(=O)O)ccc1NC(=O)N1C2CCC1CC(OCc1c(-c3ccccc3C3CC3)noc1C1CC1)C2 (centres unmarked) [Example 811],66,10 to 100
CCOc1cc(C(=O)O)ccc1NC(=O)N1C2CCC1CC(OCc1c(-c3ccccc3C(F)(F)F)noc1C1CC1)C2 (centres unmarked) [Example 812],102,10 to 100

SMILES,Emax [%],EC50 [nM]
CCOc1cc(C(=O)O)ccc1NC(=O)N1C2CCC1CC(OCc1c(C3CCC4(CC3)CC4)noc1C1CC1)C2 (centres unmarked) [Example 813],16,10 to 100
O=C(O)c1ccc(NC(=O)N2C3CCC2CC(OCc2c(-c4ccccc4C4CC4)noc2C2CC2)C3)cc1-c1ccccc1 (centres unmarked) [Example 814],112,10 to 100
O=C(O)c1ccc(NC(=O)N2C3CCC2CC(OCc2c(-c4ccccc4C(F)(F)F)noc2C2CC2)C3)cc1-c1ccccc1 (centres unmarked) [Example 815],36,10 to 100
O=C(O)c1ccc(NC(=O)N2C3CCC2CC(OCc2c(-c4c(F)cccc4F)noc2C2CC2)C3)cc1-c1ccccc1 (centres unmarked) [Example 816],36,10 to 100
O=C(O)c1ccc(NC(=O)N2C3CCC2CC(OCc2c(-c4ccccc4C(F)(F)F)noc2C2CC2)C3)c(C(F)(F)F)c1 (centres unmarked) [Example 817],20,10 to 100
O=C(O)c1ccc(NC(=O)N2C3CCC2CC(OCc2c(-c4c(F)cccc4F)noc2C2CC2)C3)c(C(F)(F)F)c1 (centres unmarked) [Example 818],25,10 to 100
O=C(O)c1ccc(NC(=O)N2C3CCC2CC(OCc2c(C4CCC5(CC4)CC5)noc2C2CC2)C3)c(C(F)(F)F)c1 (centres unmarked) [Example 819],11,10 to 100
O=C(O)c1ccc(NC(=O)N2C3CCC2CC(OCc2c(-c4ccccc4C4CC4)noc2C2CC2)C3)c(C(F)(F)F)c1 (centres unmarked) [Example 820],13,10 to 100
COC(=O)c1ccc(NC(=O)N2C3CCC2CC(OCc2c(-c4ccccc4OC(F)(F)F)noc2C2CC2)C3)cc1OC(F)(F)F (centres unmarked) [Example 821],75,10 to 100
O=C(O)c1ccc(NC(=O)N2C3CCC2CC(OCc2c(-c4ccccc4OC(F)(F)F)noc2C2CC2)C3)cc1OC(F)(F)F (centres unmarked) [Example 822],76,< 10
CCOc1cc(C(=O)O)ccc1NC(=O)N1C2CCC1CC(OCc1c(-c3ccccc3OC(F)(F)F)noc1C1CC1)C2 (centres unmarked) [Example 823],112,10 to 100
CCOC(=O)c1ccc(NC(=O)N2C3CCC2CC(NCc2c(-c4c(Cl)cccc4Cl)noc2C2CC2)C3)cc1 (centres unmarked) [Example 825],104,10 to 100
O=C(O)c1ccc(NC(=O)N2C3CCC2CC(NCc2c(-c4c(Cl)cccc4Cl)noc2C2CC2)C3)cc1 (centres unmarked) [Example 826],63,10 to 100
CCOC(=O)c1cccc(NC(=O)N2C3CCC2CC(NCc2c(-c4c(Cl)cccc4Cl)noc2C2CC2)C3)c1 (centres unmarked) [Example 827],110,< 10
O=C(O)c1cccc(NC(=O)N2C3CCC2CC(NCc2c(-c4c(Cl)cccc4Cl)noc2C2CC2)C3)c1 (centres unmarked) [Example 828],59,10 to 100
CCOC(=O)c1ccc(NC(=O)N2C3CCC2CC(NCc2c(-c4c(Cl)cccc4Cl)noc2C2CC2)C3)c(OCC)c1 (centres unmarked) [Example 829],57,10 to 100
CCOc1cc(C(=O)O)ccc1NC(=O)N1C2CCC1CC(NCc1c(-c3c(Cl)cccc3Cl)noc1C1CC1)C2 (centres unmarked) [Example 830],82,< 10
CCOC(=O)c1ccc(NC(=O)N2C3CCC2CC(NCc2c(-c4ccccc4OC(F)(F)F)noc2C2CC2)C3)c(OCC)c1 (centres unmarked) [Example 831],15,10 to 100
CCOc1cc(C(=O)O)ccc1NC(=O)N1C2CCC1CC(NCc1c(-c3ccccc3OC(F)(F)F)noc1C1CC1)C2 (centres unmarked) [Example 832],50,10 to 100
COC(=O)c1ccc2c(c1)CN(C(=O)N1C3CCC1CC(OCc1c(-c4ccccc4OC(F)(F)F)noc1C1CC1)C3)CC2 (centres unmarked) [Example 833],80,> 1000
O=C(O)c1ccc2c(c1)CN(C(=O)N1C3CCC1CC(OCc1c(-c4ccccc4OC(F)(F)F)noc1C1CC1)C3)CC2 (centres unmarked) [Example 834],102,100 to 1000
O=C(Nc1cncc(-c2ccccc2)c1)N1C2CCC1CC(OCc1c(-c3c(Cl)cccc3Cl)noc1C1CC1)C2 (centres unmarked) [Example 835],223,< 10
O=C(Nc1cccc(-c2ccncc2)c1)N1C2CCC1CC(OCc1c(-c3c(Cl)cccc3Cl)noc1C1CC1)C2 (centres unmarked) [Example 836],135,< 10

# — patent US10597391B2, “Urea-containing isoxazole derivatives as FXR agonists and methods of use thereof” (Enanta Pharmaceuticals, Inc., priority 2016, dated 2020)
